Results as given in EPA's ToxValDB 9.5 (doi:10.2903/j.efsa.2009.333r).
In brackets after ≈: the same amount, converted by molar mass.

Assays:
Colinus virginianus = details: for LD50: acute, oral, mortality
Aphidius rhopalosiphi = test: LR50; higher = less toxic; details: acute; duration: 48 hours; mortality
Oryctolagus sp. = details: developmental; development
Homo sapiens = details: clinical; oral; M/F; clinical chemistry
Apis mellifera = details: acute; duration: 48 hours; dermal; mortality
Daphnia magna = details: chronic/long-term; duration: 21 days; reproduction
Rattus norvegicus = details: for NOAEL: clinical chemistry
Tagia sp. = details: acute; duration: 14 days; mortality
Oncorhynchus mykiss = details: chronic/long-term; duration: 97 days; growth
Gasterosteus aculeatus = details: acute; duration: 96 hours; mortality

Structure (SMILES)	LD50 (Colinus virginianus; diet)	LD50 (Colinus virginianus)	LR50 (Aphidius rhopalosiphi)	NOAEL (Oryctolagus sp.)	NOAEL (Homo sapiens)	LD50 (Apis mellifera)	NOEC (Colinus virginianus; reproduction developmental)	NOEC (Daphnia magna)	LD50 (Rattus norvegicus; acute, oral, F, mortality)	NOAEL (Rattus norvegicus; chronic, duration: 2 years)	NOAEL (Rattus norvegicus; subchronic, duration: 90 days, oral)	LC50 (Tagia sp.)	NOEC (Oncorhynchus mykiss)	LC50 (Gasterosteus aculeatus)
CCOC(=O)CC(SP(=O)(OC)OC)C(=O)OCC (stereo unspecified) [Malaoxon]	334 mg/kg	43 mg/kg	–	–	–	–	–	–	–	–	–	–	–	–
CCOC(=O)CC(SP(=S)(OC)OC)C(=O)OCC (stereo unspecified) [Malathion]	554 mg/kg-day	359 mg/kg	0.0612 g/ha	25 mg/kg-day	> 15 mg/kg-day	0.16 µg/piece	13.5 mg/kg-day	6e-05 mg/L	1780 mg/kg	29 mg/kg-day	34.4 mg/kg-day	613 mg/kg	0.021 mg/L	0.022 µg/mL (≈ 0.0666 µM)
